From PMC4222603, “Dual inhibition of HIV-1 replication by integrase-LEDGF allosteric inhibitors is predominant at the post-integration stage” (Retrovirology, 2013) come the findings set out here.

Series [1] concerns the target T1, IN-CCD/LEDGF-IBD interaction (Human immunodeficiency virus type 1 group M subtype B, UniProt P12497, F1332K).
T1 construct: cloning the integrase region (residues 50 to 202, encoding the catalytic core domain); made in house
Nature of the series: HTRF-based CCD-IBD interaction assay. It is filed as binding, HIV-1. Particulars: Table 1. An excerpt: All HTRF® conjugated monoclonal antibodies were purchased from Cisbio Bioassays.
In general terms: TR-FRET usually uses a lanthanide donor and a delayed reading to cut background.

The target in the next series is IN-LEDGF/p75 interaction (Human immunodeficiency virus type 1 group M subtype B, UniProt P12497). Description: biochemical. How it is done: IN-LEDGF HTRF® assay was performed in 384-well low volume black polystyrene plates (Corning) using IN-LEDGF assay buffer (25 mM Tris–HCl pH 7.4, 150 mM NaCl, 2 mM MgCl2, 0.4 M KF, 0.1% Igepal CA-630, 0.1% bovine serum albumin, 1 mM DTT). […] The HTRF ratio was converted to % inhibition and analyzed by fitting a sigmoidal dose–response equation with Hill slope to determine the IC50 of the compound.

A further series relates to HxB2 HIV-1. Nature of the series: Antiviral assay in MT4 cells infected with HxB2. It is filed as cell-based. Conditions: Human immunodeficiency virus 1, HXB2, MT4; Table 1; read-out: HxB2 EC50 (MT4 assays).
A short description of a further series: in vitro. It is filed as cell-based. Particulars: human. On the procedure:
Growth inhibition was monitored in a proliferating human T-cell line (MT-4) with different concentrations of compounds. ATP levels were quantified using the CellTiter-Glo® luminescent reagent (Promega) to measure the ability of a compound to inhibit cell growth, an indication of the compound’s cytotoxicity. Cytotoxicity was evaluated at either day 2 or day 5.

Series [2] relates to NL4-3 Integrase G140S, Q148H. Description: Antiviral assay on INSTI-resistant virus. It is filed as cell-based, HIV-1. Conditions: ratio EC50 resistant virus / wt virus.
For series [3], the system named is NL4-3 HIV-1 virus bearing the T174I mutation in IN. Description: microbe, parasite or virus in culture. Particulars: Human immunodeficiency virus 1, NL43, read-out: EC50 on NL4-3 IN T174I mutant. In kind it is cell-based.
Series [4] relates to HIV-1 LAV virions produced by HeLa-LAV cells. Nature of the series: Virions produced by compound-treated HeLa-LAV cells: p24 and infectivity. In kind it is cell-based.
Series [5] concerns NL4-3 IN T174I mutant virus. It is filed as cell-based, HIV-1.
The test system of series [6] is panel of virus mutants in an NL4-3 background resistant to INSTIs and other classes of ARV drugs. Conditions: EC50 on resistant virus / EC50 on wt.
Another series concerns the target IN-CCD wt (Human immunodeficiency virus type 1 group M subtype B, UniProt P12497, F1332K).

For orientation: IC50 means the midpoint of a concentration-inhibition curve. Read a low IC50 as inhibition by little substance. As a reminder, the EC50 is the concentration at which the effect is half-maximal. What is called CC50 is the concentration that lowers cell viability or growth by half. What is called Kd is the concentration at which binding is half-saturated. Read a high Kd as weaker binding. Turning to `Cc1nc2c(c(-c3ccc4c(c3)CCCO4)c1C(OC(C)(C)C)C(=O)O)CCCC2` (centres unmarked) [Mut101, 2-(tert-butoxy)-2-[4-(3,4-dihydro-2H-1-benzopyran-6-yl)-2-methyl-5,6,7,8-tetrahydroquinolin-3-yl]acetic acid], the IC50 in series [1] was found to be 230 nM; on IN-LEDGF/p75 interaction (IC50 on IN-LEDGF interaction inhibition, LEDGF competition, increased value, highest LEDGF/p75 competing concentration (range 7.5 nM to 480 nM)), 680 nM; on IN-LEDGF/p75 interaction (IC50 on IN-LEDGF interaction inhibition, LEDGF competition, starting value, lowest LEDGF/p75 competing concentration (range 7.5 nM to 480 nM)), 97 nM; against IN-LEDGF/p75 interaction (IN-LEDGF IC50, Table 1, HTRF, full length proteins), 200 nM. The EC50 in the series with HxB2 HIV-1 was 92 nM; in [3] it was above 50000 nM. This compound also had a CC50 in “in vitro” above 50000 nM. Besides, the “EC50 fold change INSTIs” value in series [2] is on record as 1. For the same compound, in [4], the “Virucidal effect on free virus released in supernatant” value is “unable to inactivate free virus”. The “Amount of p24 produced by treated HeLa-LAV cells” value in series [4] (compared with Raltegravir, DMSO or Mut063 treatment) is on record as “comparable”. Besides, the “Infectivity of virions from treated HeLa-LAV cells” value in [4] (luciferase assay in TZM cells) is given as “strong virus infectivity defects”. Moreover, in [5], the “Infectivity of NL4-3 IN T174I virus produced in presence of compound” value is “insensitive”. Further, the “EC50 fold change (FC) ratio against all resistant viruses” value in series [6] is at most 1. Further, the affinity at IN-CCD wt, expressed as Kd, was 120 nM.
